Patent US8183243B2, “Melanocortin receptor agonists” (LG Life Sciences Ltd., priority 2008, dated 2012)
Read-outs that look alike come from different tables or passages of the source.

Target: T1, MC4R (Homo sapiens, UniProt P32245)
T1 construct: expressed in transfected cells; host or cells: HEK (Human Embryonic Kidney) permanent expression cell line HEK MC4R-Luc, co-expressing CRE-luciferase
Assay: MCR agonistic activity (luciferase assay / cAMP accumulation assay) on MC4R
Type: cell-based
Details: HEK cell lines expressing MC4R, not said which
Procedure: Physiological activity of the compounds of the present invention was assessed by measuring agonistic activity as well as binding activity for melanocortin receptors (MCR) according to methods A and B explained as follows.
As one of the methods to measure MCR agonistic activity of the compound according to the present invention, the expression level of a marker gene (for example, luciferase) which increases proportionally according to the increase of cAMP content in the cell, was measured.
First, permanent expression HEK (Human Embryonic Kidney) cell lines (HEK MC1R-Luc, MC3R-Luc, MC4R-Luc or MC5R-Luc) expressing the MCR gene of each subtype together with luciferase gene (CRE-LUC) under the control of CRE (cAMP Response Element) were constructed. The above cell lines were incubated in an incubator with 6% CO2 atmosphere at 37° C. using selection medium, DMEM(Dulbecco's Modified Eagles Medium) containing 10% heat-inactivated fetal bovine serum (Gibco/BRL), 100 unit/ml, penicillin (Gibco/BRL), 100 unit/ml streptomycin (Gibco/BRL), and 200 μg/ml geneticin (G418) (Gibco/BRL). When the cell covered 70% of total surface of the culture dish with 100 mm diameter, the culture dish was rinsed one time with 10 ml Phosphate Buffered Saline(PBS) free of Ca^++ and Mg^++, and then 3 ml PBS solution containing 0.05% trypsin and 0.53 mM EDTA was added thereto. After the trypsin/EDTA solution was removed, the cell lines were incubated in an thermostatic incubator for 1 minute at 37° C., and resuspended in 10 ml selection medium and centrifuged for 5 minutes at 1500 rpm. The supernatant was discarded and the settled cells were resuspended in 5 ml selection medium free of Phenol Red. The resulting cell-suspension was plated onto each well of 96-well culture plates for Luminometer(Costar) with a concentration of 5×10^4 cell in 100 μl culture medium for each well and incubated in the incubator with 6% CO2 atmosphere at 37° C. for 18 hours. With MCR agonists (Example compounds) diluted stepwise using the above culture medium, the cells were treated under the condition of the final DMSO concentration not exceeding 1%, and incubated for 5 hours in the atmosphere of 6% CO2 at 37° C. Then, 50 μl Bright-Glo (Promega) was added to each well. After allowing the treated cells to be at room temperature for 15 minutes, luminescence was measured for each well by using luminometer (Victor). The level of luminescence induced by the stepwise-diluted agonist was converted to relative % value to those by the treatment of 10 nM NDP-MSH. The EC50 indicates the concentration of each agonist for inducing 50% of maximal luminescence by each agonist and this value was measured by a statistical software (Prizm).
B. cAMP Accumulation Assay
As another method to measure MCR agonistic activity of the compound according to the present invention, an increase of cAMP amount in the cell was measured.
First, permanent expression HEK (Human Embryonic Kidney) cell lines (HEK MC1R-Luc, MC3R-Luc, MC4R-Luc or MCSR-Luc) expressing the MCR gene of each subtype were plated onto each well of 24-well culture plates for Luminometer(Costar) with a concentration of 2×10^5 cell in 1 ml culture medium for each well, and then incubated in an incubator with 6% CO2 atmosphere at 37° C. for 24 hours. The medium was removed from each well followed by rinsing with 0.5 ml cold DMEM one time. With MCR agonists (Example compounds) diluted stepwise using 200 μl DMEM including 500 μM IBMX (isobutylmethylxanthine), the cells were treated under the condition of the final DMSO concentration not exceeding 1%, and incubated for 30 minutes in the atmosphere of 6% CO2 at 37° C. Then, the cAMP amount in each cell was measured using Amersham cAMP assay Kit (TRK432).
More specifically, 14.4 μl of 6M PCA (60%) was added to each well, and allowed to be in ice for 10 minutes, and 200 μl sample was taken from each well and transferred to microcentrifuge tube. […]

[1] = method A (CRE-luciferase) or B (cAMP accumulation), read-out: EC50 value, agonistic activity to MC4R (range per group of Examples)
[2] = specific activities of representative compounds, method A or B, read-out: EC50

T1 sequence (P32245 whole entry, species assumed): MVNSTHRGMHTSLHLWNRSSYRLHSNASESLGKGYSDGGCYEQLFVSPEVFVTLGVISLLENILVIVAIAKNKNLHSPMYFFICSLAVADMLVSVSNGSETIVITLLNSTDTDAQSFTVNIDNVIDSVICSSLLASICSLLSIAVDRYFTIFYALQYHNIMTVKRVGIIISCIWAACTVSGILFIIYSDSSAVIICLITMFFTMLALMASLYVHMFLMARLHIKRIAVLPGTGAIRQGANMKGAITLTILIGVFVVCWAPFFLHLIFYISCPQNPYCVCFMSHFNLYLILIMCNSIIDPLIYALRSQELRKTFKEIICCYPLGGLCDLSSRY

EC50 [1] | EC50 [2] | SMILES
0.1 to 10 nM | – | CN1CCN(C(=O)[C@@H]2C[C@H](N(C(=O)C(C)(C)C)c3ccc(F)cc3F)CN2C(=O)[C@@H]2CN(C(C)(C)C)C[C@H]2c2ccc(Cl)cc2)CC1 [Example 80, N-{(3S,5S)-1-{[(3S,4R)-1-tert-butyl-4-(4-chlorophenyl)pyrrolidin-3-yl]carbonyl}-5-[(4-methylpiperazin-1-yl)carbonyl]pyrrolidin-3-yl}-N-(2,4-difluorophenyl)-2,2-dimethylpropanamide]
100 to 1000 nM | – | CN1CCN(C(=O)[C@@H]2C[C@H](N(C(=O)C(C)(C)C)C3CCC(C)(C)CC3)CN2C(=O)[C@@H]2CN(c3nccs3)C[C@H]2c2ccc(Cl)cc2)CC1 [Example 70, N-{(3S,5S)-1-{[(3S,4R)-4-(4-chlorophenyl)-1-(1,3-thiazole-2-yl)pyrrolidin-3-yl]carbonyl}-5-[(4-methylpiperazin-1-yl)carbonyl]pyrrolidin-3-yl}-N-(4,4-dimethylcyclohexyl)-2,2-dimethylpropanamide]
0.1 to 10 nM | – | CN1CCN(C(=O)[C@@H]2C[C@H](N(C(=O)C(C)(C)CO)[C@H]3CC[C@@H](C)CC3)CN2C(=O)[C@@H]2CN(C(C)(C)C)C[C@H]2c2ccc(Cl)cc2)CC1 [Example 19, N-{(3S,5S)-1-{[(3S,4R)-1-tert-butyl-4-(4-chlorophenyl)pyrrolidin-3-yl]carbonyl}-5-[(4-methylpiperazin-1-yl)carbonyl]pyrrolidin-3-yl}-3-hydroxy-2,2-dimethyl-N-(cis-4-methylcyclohexyl)propanamide]
0.1 to 10 nM | – | CN1CCN(C(=O)[C@@H]2C[C@H](N(C(=O)[C@@H]3CCCO3)[C@H]3CC[C@@H](C)CC3)CN2C(=O)[C@@H]2CN(c3ccc(=O)[nH]n3)C[C@H]2c2ccc(Cl)cc2)CC1 [Example 73, (2S)-N-{(3S,5S)-1-{[(3S,4R)-4-(4-chlorophenyl)-1-(6-oxo-1,6-dihydropyridazine-3-yl)pyrrolidin-3-yl]carbonyl]-5-[(4-methylpiperazin-1-yl)carbonyl]pyrrolidin-3-yl}-N-(cis-4-methylcyclohexyl)tetrahydrofuran-2-carboxamide]
10 to 100 nM | – | CN1CCN(C(=O)[C@@H]2C[C@H](N(C(=O)[C@@H]3CCCO3)[C@H]3CC[C@@H](C)CC3)CN2C(=O)[C@@H]2CN(C3CC3)C[C@H]2c2ccc(Cl)cc2)CC1 [Example 56, (2S)-N-{(3S,5S)-1-{[(3S,4R)-4-(4-chlorophenyl)-1-cyclopropylpyrrolidin-3-yl]carbonyl}-5-[(4-methylpiperazin-1-yl)carbonyl]pyrrolidin-3-yl}-N-(cis-4-methylcyclohexyl)tetrahydrofuran-2-carboxamide]
0.1 to 10 nM | – | CCN1CCN(C(=O)[C@@H]2C[C@H](N(C(=O)[C@@H]3CCCO3)[C@H]3CC[C@@H](C)CC3)CN2C(=O)[C@@H]2CN(C(C)(C)C)C[C@H]2c2ccc(Cl)cc2)CC1 [Example 22, (2S)-N-{(3S,5S)-1-{[(3S,4R)-1-tert-butyl-4-(4-chlorophenyl)pyrrolidin-3-yl]carbonyl}-5-[(4-ethylpiperazin-1-yl)carbonyl]pyrrolidin-3-yl}-N-(cis-4-methylcyclohexyl)tetrahydrofuran-2-carboxamide]
100 to 1000 nM | – | CN1CCN(C(=O)[C@@H]2C[C@@H](N(C(=O)[C@@H]3CCCO3)[C@H]3CC[C@@H](C)CC3)CN2C(=O)[C@@H]2CN(C(C)(C)C)C[C@H]2c2ccc(Cl)cc2)CC1 [Example 76, (2S)-N-{(3R,5S)-1-{[(3S,4R)-1-tert-butyl-4-(4-chlorophenyl)pyrrolidin-3-yl]carbonyl}-5-[(4-methylpiperazin-1-yl)carbonyl]pyrrolidin-3-yl}-N-(cis-4-methylcyclohexyl)tetrahydrofuran-2-carboxamide]
0.1 to 10 nM | 6 nM | CC(=O)N(C1CCC(C)(C)CC1)[C@H]1C[C@@H](C(=O)N2CCNCC2)N(C(=O)[C@@H]2CN(C(C)(C)C)C[C@H]2c2ccc(F)cc2F)C1 [Example 2, N-[(3S,5S)-1-{[(3S,4R)-1-tert-butyl-4-(2,4-difluorophenyl)pyrrolidin-3-yl]carbonyl}-5-(piperazin-1-ylcarbonyl)pyrrolidin-3-yl]-N-(4,4-dimethylcyclohexyl)acetamide]
0.1 to 10 nM | – | CN1CCN(C(=O)[C@@H]2C[C@H](N(C(=O)C(C)(C)C)C3CCC(C)(C)CC3)CN2C(=O)[C@@H]2CN(C(C)(C)C)C[C@H]2c2ccc(F)cc2F)CC1 [Example 11, N-{(3S,5S)-1-{[(3S,4R)-1-tert-butyl-4-(2,4-difluorophenyl)pyrrolidin-3-yl]carbonyl}-5-[(4-methylpiperazin-1-yl)carbonyl]pyrrolidin-3-yl}-N-(4,4-dimethylcyclohexyl)-2,2-dimethylpropanamide]
10 to 100 nM | – | CC(=O)N([C@H]1C[C@H](C(=O)N2CCN(C)CC2)N(C(=O)[C@@H]2CN(C(C)C)C[C@H]2c2ccc(Cl)cc2)C1)[C@H]1CC[C@@H](C)CC1 [Example 62, N-{(3S,5R)-1-{[(3S,4R)-4-(4-chlorophenyl)-1-isopropylpyrrolidin-3-yl]carbonyl}-5-[(4-methylpiperazin-1-yl)carbonyl]pyrrolidin-3-yl}-N-(cis-4-methylcyclohexyl)acetamide]
0.1 to 10 nM | 10 nM | Cc1ccc(N2C[C@@H](C(=O)N3C[C@@H](N(C(=O)[C@@H]4CCCO4)C4CCC(C)(C)CC4)C[C@H]3C(=O)N3CCN(C)CC3)[C@H](c3ccc(Cl)cc3)C2)nn1 [Example 43, (2S)-N-{(3S,5S)-1-{[(3S,4R)-4-(4-chlorophenyl)-1-(6-methylpyridazin-3-yl)pyrrolidin-3-yl]carbonyl}-5-[(4-methylpiperazin-1-yl)carbonyl]pyrrolidin-3-yl}-N-(4,4-dimethylcyclohexyl)tetrahydrofuran-2-carboxamide]
0.1 to 10 nM | – | CN1CCN(C(=O)[C@@H]2C[C@H](N(C(=O)C(C)(C)C)C3CCC(F)(F)CC3)CN2C(=O)[C@@H]2CN(C(C)(C)C)C[C@H]2c2ccc(F)cc2F)CC1 [Example 30, N-{(3S,5S)-1-{[(3S,4R)-1-tert-butyl-4-(2,4-difluorophenyl)pyrrolidin-3-yl]carbonyl}-5-[(4-methylpiperazin-1-yl)carbonyl]pyrrolidin-3-yl}-N-(4,4-difluorocyclohexyl)-2,2-dimethylpropanamide]
1000 to 10000 nM | – | Cc1ccccc1N1C[C@@H](C(=O)N2C[C@@H](N(C(=O)[C@@H]3CCCO3)[C@H]3CC[C@@H](C)CC3)C[C@H]2C(=O)N2CCN(C)CC2)[C@H](c2ccc(Cl)cc2)C1 [Example 71, (2S)-N-{(3S,5S)-1-{[(3S,4R)-4-(4-chlorophenyl)-1-(2-methylphenyl)pyrrolidin-3-yl]carbonyl}-5-[(4-methylpiperazin-1-yl)carbonyl]pyrrolidin-3-yl}-N-(cis-4-methylcyclohexyl)tetrahydrofuran-2-carboxamide]
0.1 to 10 nM | – | CC(C)N1CCN(C(=O)[C@@H]2C[C@H](N(C(=O)[C@@H]3CCCO3)C3CCC(C)(C)CC3)CN2C(=O)[C@@H]2CN(C(C)(C)C)C[C@H]2c2ccc(Cl)cc2)CC1 [Example 13, (2S)-N-{(3S,5S)-1-{[(3S,4R)-1-tert-butyl-4-(4-chlorophenyl)pyrrolidin-3-yl]carbonyl}-5-[(4-isopropylpiperazin-1-yl)carbonyl]pyrrolidin-3-yl}-N-(4,4-dimethylcyclohexyl)tetrahydrofuran-2-carboxamide]
